# Assay results: US10280149B2, “Therapeutic compounds and uses thereof” (GENENTECH, INC., priority 2015, dated 2019)
# pIC50: −log10 of the molar value. Where a name gives a salt, the structure may show the parent alone.
# Molecular target: Full length KDM2B (Homo sapiens (Human), UniProt Q8NHM5)
# Experiment: KDM2B TR-FRET assay for determining inhibitor IC50
# Type: biochemical
# Conditions: TR-FRET (HTRF), biotin-H3K36me2 peptide substrate, 2-OG 0.3 μM or 6 μM
# Excerpt: KDM2B TR-FRET Assay for Determining Inhibitor IC50
# The KDM2B TR-FRET Assay described above represents an additional embodiment of the invention.
# Chain of Full length KDM2B (Q8NHM5 whole entry): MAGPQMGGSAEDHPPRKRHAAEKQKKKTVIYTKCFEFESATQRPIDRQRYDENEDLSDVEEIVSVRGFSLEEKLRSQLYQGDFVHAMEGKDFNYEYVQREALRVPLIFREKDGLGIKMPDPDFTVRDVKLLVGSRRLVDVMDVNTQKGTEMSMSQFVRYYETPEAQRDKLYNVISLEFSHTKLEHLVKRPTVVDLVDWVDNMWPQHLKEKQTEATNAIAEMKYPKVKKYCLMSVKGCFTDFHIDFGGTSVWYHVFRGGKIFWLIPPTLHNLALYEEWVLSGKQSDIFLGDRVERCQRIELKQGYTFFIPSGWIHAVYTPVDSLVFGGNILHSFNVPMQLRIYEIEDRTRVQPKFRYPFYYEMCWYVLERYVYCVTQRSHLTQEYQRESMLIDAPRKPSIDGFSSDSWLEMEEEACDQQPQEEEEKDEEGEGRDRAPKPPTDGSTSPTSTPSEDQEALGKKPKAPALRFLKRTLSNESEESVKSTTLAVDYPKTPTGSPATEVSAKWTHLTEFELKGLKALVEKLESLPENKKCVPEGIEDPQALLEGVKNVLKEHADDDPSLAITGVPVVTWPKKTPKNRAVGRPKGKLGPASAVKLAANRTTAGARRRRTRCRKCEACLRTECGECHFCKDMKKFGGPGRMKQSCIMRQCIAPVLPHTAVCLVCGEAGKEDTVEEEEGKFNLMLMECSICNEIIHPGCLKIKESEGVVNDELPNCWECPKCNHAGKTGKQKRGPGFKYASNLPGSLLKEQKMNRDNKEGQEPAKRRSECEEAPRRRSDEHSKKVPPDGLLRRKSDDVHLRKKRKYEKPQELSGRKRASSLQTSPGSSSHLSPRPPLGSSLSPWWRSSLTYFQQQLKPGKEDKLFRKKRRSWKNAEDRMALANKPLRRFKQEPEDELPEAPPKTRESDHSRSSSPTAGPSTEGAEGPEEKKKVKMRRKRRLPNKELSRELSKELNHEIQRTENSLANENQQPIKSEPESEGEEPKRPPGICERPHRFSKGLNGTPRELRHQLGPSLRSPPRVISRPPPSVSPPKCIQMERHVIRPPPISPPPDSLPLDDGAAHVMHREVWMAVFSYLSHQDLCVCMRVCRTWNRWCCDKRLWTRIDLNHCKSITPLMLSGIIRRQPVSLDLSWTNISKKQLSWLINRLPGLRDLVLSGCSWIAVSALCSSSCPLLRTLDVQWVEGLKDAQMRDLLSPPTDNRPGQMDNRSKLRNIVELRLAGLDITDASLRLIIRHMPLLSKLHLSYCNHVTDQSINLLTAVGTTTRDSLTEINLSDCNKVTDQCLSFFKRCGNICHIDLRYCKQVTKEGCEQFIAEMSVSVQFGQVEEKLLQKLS
smiles,measurement,value
"CCC1CCN(C2CCC2)CC1C(=O)c1ccc2cc(OC)ccc2c1 (single isomer, unassigned) [Example 142d, (1-cyclobutyl-4-ethylpiperidin-3-yl)(6-methoxynaphthalen-2-yl)methanone]",pIC50,8.18
"CCCC1CCN(C2CCC2)CC1C(=O)c1ccc2cc(OC)ccc2c1 (single isomer, unassigned) [Example 140a, (1-cyclobutyl-4-propylpiperidin-3-yl)(6-methoxynaphthalen-2-yl)methanone]",pIC50,6.51
"COc1ccc2cc(C(=O)[C@]3(O)CCCN(CC4CC4)C3)ccc2c1 (stereo in doubt) [Example 158b, (1-(cyclopropylmethyl)-3-hydroxypiperidin-3-yl)(6-methoxynaphthalen-2-yl)methanone]",pIC50,4.94
"Cc1c(C#N)ccc2cc(C(=O)C3CCCN(C4CCCC4)C3)ccc12 (centres unmarked) [Example 73, 6-(1-cyclopentylpiperidine-3-carbonyl)-1-methyl-2-naphthonitrile]",pIC50,6.49
"CCCN1CCCC(C(=O)c2ccc3cc(OC)ccc3c2)C1 (centres unmarked) [Example 18, (6-methoxy-2-naphthyl)-(1-propyl-3-piperidyl)methanone]",pIC50,6.79
"O=C(c1ccc(-c2ccccc2)cc1)[C@@H]1CCCN(CC2CC2)C1 [Example 32, [(3R)-1-(cyclopropylmethyl)-3-piperidyl]-(4-phenylphenyl)methanone]",pIC50,5.39
"O=C(c1ccc2cc(CO)ccc2c1)C1CCCN(C2CCCC2)C1 (centres unmarked) [Example 154, (1-cyclopentylpiperidin-3-yl)(6-(hydroxymethyl)naphthalen-2-yl)methanone]",pIC50,6.74
"Cc1cccc2ccc(C(=O)C3CCCN(CC4CC4)C3)cc12 (centres unmarked) [Example 59, [1-(cyclopropylmethyl)-3-piperidyl]-(8-methyl-2-naphthyl)methanone]",pIC50,6.77
"CC[C@@H]1CCN(C2CCC2)C[C@H]1C(=O)c1ccc2cc(OC)ccc2c1 (single isomer, unassigned) [Example 142a, (1-cyclobutyl-4-ethylpiperidin-3-yl)(6-methoxynaphthalen-2-yl)methanone]",pIC50,7.94
"COc1ccc2cc(C(=O)C3CCCN(C4CCC4)C3)ccc2c1CO (centres unmarked) [Example 189, (1-cyclobutylpiperidin-3-yl)(5-(hydroxymethyl)-6-methoxynaphthalen-2-yl)methanone hydrochloride]",pIC50,7.26
"CCCN1CCCC(C(=O)c2ccc(OC)c(OC)c2)C1 (centres unmarked) [Example 104, (3,4-dimethoxyphenyl)-(1-propyl-3-piperidyl)methanone]",pIC50,6.13
"COc1ccc2cc(C(=O)[C@@H]3CN(C4CCC4)CC[C@@H]3c3ccccc3)ccc2c1 (single isomer, unassigned) [Example 141a, (1-cyclobutyl-4-phenylpiperidin-3-yl)(6-methoxynaphthalen-2-yl)methanone]",pIC50,6.00
"Cc1c(C(=O)C2CCCN(CC3CC3)C2)ccc2ccccc12 (centres unmarked) [Example 115, (1-(cyclopropylmethyl)piperidin-3-yl)(1-methylnaphthalen-2-yl)methanone]",pIC50,6.36
"CCC1CCN(C2CCC2)CC1C(=O)c1ccc2cc(OC)ccc2c1 (single isomer, unassigned) [Example 142c, (1-cyclobutyl-4-ethylpiperidin-3-yl)(6-methoxynaphthalen-2-yl)methanone]",pIC50,6.68
"O=C(c1cnn(-c2ccccc2)c1)C1CCCN(CC2CC2)C1 (centres unmarked) [Example 124, (1-(cyclopropylmethyl)piperidin-3-yl)(1-phenyl-1H-pyrazol-4-yl)methanone]",pIC50,6.18
"CCCN1CCCC(C(=O)c2ccc3c(c2)OCCO3)C1 (centres unmarked) [Example 108, 2,3-dihydro-1,4-benzodioxin-6-yl-(1-propyl-3-piperidyl)methanone]",pIC50,6.53
"COc1ccc2cc(C(=O)C3CC(O)CN(CC4CC4)C3)ccc2c1 (centres unmarked) [Example 155, (1-(cyclopropylmethyl)-5-hydroxypiperidin-3-yl)(6-methoxynaphthalen-2-yl)methanone]",pIC50,6.11
"COc1ccc2cc(C(=O)[C@@H]3CN(C4CCC4)CC[C@@H]3C(C)C)ccc2c1 (single isomer, unassigned) [Example 143a, (1-cyclobutyl-4-isopropylpiperidin-3-yl)(6-methoxynaphthalen-2-yl)methanone]",pIC50,6.20
"CCCN1CC[C@H](C)[C@H](C(=O)c2ccc3c(CC#N)c(OC)ccc3c2)C1 (stereo in doubt) [Example 181b, 2-(2-methoxy-6-(4-methyl-1-propylpiperidine-3-carbonyl)naphthalen-1-yl)acetonitrile]",pIC50,7.91
"Cn1ccc2ccc(C(=O)C3CCCN(CC4CC4)C3)cc21 (centres unmarked) [Example 119, (1-(cyclopropylmethyl)piperidin-3-yl)(1-methyl-1H-indol-6-yl)methanone]",pIC50,5.64
"O=C(c1cc(CO)c2ccccc2c1)C1CCCN(C2CCC2)C1 (centres unmarked) [Example 58, (1-cyclobutyl-3-piperidyl)-[4-(hydroxymethyl)-2-naphthyl]methanone]",pIC50,7.32
"O=C(c1cccc(-c2ccccc2)c1)C1CCCN(CC2CC2)C1 (centres unmarked) [Example 25, [1-(cyclopropylmethyl)-3-piperidyl]-(3-phenylphenyl)methanone]",pIC50,5.85
"COc1ccc2cc(C(=O)C3CN(C4CCC4)CCC3CC(C)C)ccc2c1 (single isomer, unassigned) [Example 144b, (1-cyclobutyl-4-isobutylpiperidin-3-yl)(6-methoxynaphthalen-2-yl)methanone]",pIC50,6.57
"COc1ccc2cc(C(=O)C3CN(C4CCC4)CCN3CC3CC3)ccc2c1 (centres unmarked) [Example 192, [4-cyclobutyl-1-(cyclopropylmethyl)piperazin-2-yl]-(6-methoxy-2-naphthyl)methanone]",pIC50,6.41
"COc1ccc2cc(C(=O)[C@H]3CN(C4CCC4)CC[C@H]3C)ccc2c1CC#N (stereo in doubt) [Example 182a, 2-(6-(1-cyclobutyl-4-methylpiperidine-3-carbonyl)-2-methoxynaphthalen-1-yl)acetonitrile]",pIC50,6.54
"COc1ccc(C(=O)C2CCCN(CC3CC3)C2)cc1 (single isomer, unassigned) [Example 110a, (1-(cyclopropylmethyl)piperidin-3-yl)(4-methoxyphenyl)methanone]",pIC50,5.70
"Cc1ccc2cc(C(=O)C3CCCN(C4CCC4)C3)ccc2c1 (centres unmarked) [Example 165, (1-cyclobutylpiperidin-3-yl)(6-methylnaphthalen-2-yl)methanone hydrochloride]",pIC50,6.79
"CCCN1CCCC(C(=O)c2ccc3c(C)c(C#N)ccc3c2)C1 (centres unmarked) [Example 70, 1-methyl-6-(1-propylpiperidine-3-carbonyl)-2-naphthonitrile]",pIC50,7.04
"CC1CC1CN1CCCC(C(=O)c2ccc3cc(C#N)ccc3c2)C1 (centres unmarked) [Example 164, 6-(1-((2-methylcyclopropyl)methyl)piperidine-3-carbonyl)-2-naphthonitrile]",pIC50,6.36
"COc1ccc2cc(C(=O)C3CCCN(C4CCC4)C3)ccc2c1 (centres unmarked) [Example 76, (1-cyclobutyl-3-piperidyl)-(6-methoxy-2-naphthyl)methanone]",pIC50,6.21
"CC1CCN(C2CCCC2)CC1C(=O)c1ccc2cc(C#N)ccc2c1 (centres unmarked) [Example 162a, 6-(1-cyclopentyl-4-methylpiperidine-3-carbonyl)-2-naphthonitrile]",pIC50,6.09
"COc1ccc2cc(C(=O)C3CN(CC4CC4)CCC3OC)ccc2c1 (single isomer, unassigned) [Example 146b, (1-(cyclopropylmethyl)-4-methoxypiperidin-3-yl)(6-methoxynaphthalen-2-yl)methanone]",pIC50,6.89
"COc1ccc2cc(C(=O)C3CN(C4CCC4)CCN3Cc3ccccc3C#N)ccc2c1 (centres unmarked) [Example 195, 2-[[4-cyclobutyl-2-(6-methoxynaphthalene-2-carbonyl)piperazin-1-yl]methyl]benzonitrile]",pIC50,6.75
"COc1ccc2cc(C(=O)C3CCCN(C4CCCC4)C3)ccc2c1CC#N (centres unmarked) [Example 54, 2-[6-(1-cyclopentylpiperidine-3-carbonyl)-2-methoxy-1-naphthyl]acetonitrile]",pIC50,7.40
"O=C(c1ccc2ccccc2n1)C1CCCN(CC2CC2)C1 (single isomer, unassigned) [Example 117a, (1-(cyclopropylmethyl)piperidin-3-yl)(quinolin-2-yl)methanone]",pIC50,6.45
CN(C)C(=O)c1ccc2cc(C(=O)C3CCCN(C4CCCC4)C3)ccc2c1 (centres unmarked) [Example 178],pIC50,6.73
"CCCN1CCCC(C(=O)c2ccc3c(C)c(OC)ccc3c2)C1 (centres unmarked) [Example 50, (6-methoxy-5-methyl-2-naphthyl)-(1-propyl-3-piperidyl)methanone]",pIC50,7.59
"O=C(c1ccc(-c2ccccc2)nc1)C1CCCN(CC2CC2)C1 (centres unmarked) [Example 36, [1-(cyclopropylmethyl)-3-piperidyl]-(6-phenyl-3-pyridyl)methanone]",pIC50,6.27
"CN(C)C(=O)c1ccc2cc(C(=O)C3CCCN(CC4CC4)C3)ccc2c1 (centres unmarked) [Example 176, 6-(1-(cyclopropylmethyl)piperidine-3-carbonyl)-N,N-dimethyl-2-naphthamide]",pIC50,6.67
"CNC(=O)c1cc(C(=O)C2CCCN(C3CCCC3)C2)cc2ccccc12 (centres unmarked) [Example 41, 3-(1-cyclopentylpiperidine-3-carbonyl)-N-methyl-naphthalene-1-carboxamide]",pIC50,6.15
"COc1ccc2cc(C(=O)C3CN(C4CCC4)CCN3Cc3cccc(C(F)(F)F)c3)ccc2c1 (centres unmarked) [Example 198, [4-cyclobutyl-1-[[3-(trifluoromethyl)phenyl]methyl]piperazin-2-yl]-(6-methoxy-2-naphthyl)methanone]",pIC50,6.52
"CCCN1CCCC(C(=O)c2ccc3c(cnn3C)c2)C1 (centres unmarked) [Example 94, (1-methylindazol-5-yl)-(1-propyl-3-piperidyl)methanone]",pIC50,6.91
"O=C(c1cccc(Oc2ccccc2)c1)[C@H]1CCCN(CC2CC2)C1 [Example 28, [(3S)-1-(cyclopropylmethyl)-3-piperidyl]-(3-phenoxyphenyl)methanone]",pIC50,5.77
"COCCN1CCCC(C(=O)c2ccc3cc(OC)ccc3c2)C1 (centres unmarked) [Example 78, [1-(2-methoxyethyl)-3-piperidyl]-(6-methoxy-2-naphthyl)methanone]",pIC50,5.62
